Key:
[1] = molecular target: T1, preformed α-synuclein fibrils (Homo sapiens, UniProt P37840); test: α-synuclein disaggregation assay on preformed fibrils (Th-T); type: biochemical; details: 25 μM preformed fibrils; for effect on preformed α-synuclein fibrils (Th-T counts): ratios 6:1, 4:1, 2:1, 48 hours, 37° C.
T1 construct: GST (N, cleaved yes); made in house; host or cells: E. coli BL21
Protocol: α-Synuclein solution in PBS (pH 7.4) was aggregated at a concentration of 25 μM as indicated above. The resulting aggregated α-synuclein was incubated either alone or with Gn Rb1 or dihydromyricetin at various molar ratios (compound: α-synuclein molar ratios of 6:1, 4:1 and 2:1). It should be noted that for the purpose of the experiment, the concentration of α-synuclein taken into account was the concentration of fresh α-synuclein. The samples were incubated at 37° C. for 48 hours on a thermomixer with continuous shaking at 800 rpm. Samples were collected at regular time points, and Th-T fluorescence was measured immediately.
Due to their high efficiency to inhibit α-synuclein fibrillation, Gn Rb1 and dihydromyricetin were assessed for their effectiveness on reversing fibrillation. 25 μM of preformed α-synuclein fibrils were incubated at 37° C. in the presence of Gn Rb1 or dihydromyricetin at varying molar ratios (compound: α-synuclein of 6:1, 4:1 and 2:1) for a period of 48 hours. By measuring the Th-T fluorescence counts (FIGS. 7A-7B), the fibril content was estimated at different time points.

[2] = tested on: BE(2)-M17 human neuroblastoma cells; test: α-synuclein-induced cytotoxicity, MTT cell viability; type: cell-based
Protocol: BE(2)-M17 human neuroblastoma cells were routinely cultured in Dulbecco's MEM/Nutrient Mix F-12 (1:1) (Gibco BRL, Rockville, Md.) containing 15% fetal bovine serum and 1% penicillin-streptomycin (P/S; 100 U/ml penicillin, […]). The cells were maintained at 37° C. in a humidified incubator with 5% CO2/95% air.
BE(2)-M17 cells suspended in DMEM medium were plated at a density of 15,000 cells (100 μL/well) in a 96-well plate. After 24 hours, the medium was replaced with 200 μL of OPTI-MEM (Gibco-USA) serum-free medium containing aged α-synuclein solutions with or without the compounds. Aged α-synuclein and compound-containing solutions were diluted in OPTI-MEM to obtain the desired concentration. Cells were then incubated at 37° C. in 5% CO2 for 48 hours. A total of 20 μL of MTT (3-(4,5-dimethylthiazol-2-yl)-2,5-diphenyltetrazolium bromide) (Sigma-Aldrich, USA) (6 mg/ml) in PBS was dispensed into each well, and the plate was incubated at 37° C. for 4.5 hours. The MTT-containing medium was carefully removed, and 100 μL of lysis buffer (15% SDS, 50% N,N-dimethylformamide, pH 4.7) was added to each well. The lysis buffer was incubated overnight at 37° C. before the absorbance values at 590 nm were determined by a microplate reader (Perkin Elmer).
BE(2)-M17 human neuroblastoma cells were treated with aged α-synuclein solutions at three different concentrations, 0.5 μM, 1 μM and 5 μM, either alone or in the presence of Gn Rb1, salvianolic acid B or dihydromyricetin.
The viability of cells treated with α-synuclein aged in the presence or absence of the Gn Rb1, salvianolic acid B or dihydromyricetin was determined by the MTT assay. Prior to the experiments, the effect of the Gn Rb1, salvianolic acid B and dihydromyricetin alone on cell viability was assessed (data not shown), employing the same non-toxic Gn Rb1, salvianolic acid B and dihydromyricetin concentrations that were later employed for the experiments with aged α-synuclein.

[3] = molecular target: T2, monomeric α-synuclein (Homo sapiens, UniProt P37840); test: NMR titration into monomeric α-synuclein; type: binding; details: stoichiometries of up to 6:1 compound: α-synuclein, 100 μM α-synuclein
T2 construct: made in house
Protocol: For NMR studies, recombinant ^15N-labeled α-synuclein was expressed and purified as previously described, resuspended in PBS buffer at pH 6.6. Two-dimensional ^1H-^15N HQSC spectra were acquired for α-synuclein at 100 μM concentration in the absence of Gn Rb1 and in the presence of increasing Gn Rb1: α-synuclein stoichiometries of 1:1, 4:1 and 6:1. Data were collected on a Bruker 900 MHz spectrometer equipped with a cold probe.

[4] = molecular target: T3, α-synuclein oligomers (Homo sapiens, UniProt P37840); test: Binding to α-synuclein oligomers: SEC fractions P1-P3 with UV scanning; details: compound: α-synuclein 4:1, 100 μM α-synuclein, 5 days
T3 construct: GST (N, cleaved yes); made in house; host or cells: E. coli BL21
Protocol: SEC was carried out using an AKTA FPLC system (GE Healthcare-Sweden) and a superdex 200 column at 4° C., in order to separate the oligomers generated from the aggregation of α-synuclein with the compounds (compound: α-synuclein molar ratio of 4:1). Monomeric α-synuclein at a concentration of 100 μM was aggregated in the presence of the compounds for 5 days as described above. At the end of the aggregation process, the sample was centrifuged for 45 min at 14,000×g at 4° C. generating a supernatant free from insoluble material. Prior to injecting 80% of the generated supernatant, the column was thoroughly equilibrated with SEC running buffer (1×PBS, pH 7.4) and the flow rate was set to 0.1 ml/min (0.5 ml/fraction). The elution of α-synuclein was monitored at absorbance wavelengths of 215 nm, 254 nm, and 280 nm. To determine the elution time of monomeric α-syn, molecular weight standards (ferritin 440 kDa, aldolase 171 kDa, abmumin 68 kDa and chymotrypsinogenA 25 kDa) and monomeric α-synuclein were co-injected into the column and eluted at the same conditions mentioned above.
For the experiments with salvianolic acid B and dihydromyricetin the fractions eluting between 7-8 ml CV were combined and labeled as oligomers (sample P1), and fractions eluting between 12-14 ml CV were combined and labeled as oligomers (sample P2), whereas the fractions eluting in the 14-16 ml CV were combined and labeled as monomers (sample P3). […]
The P1, P2 and P3 samples, representing the oligomeric and monomeric fractions of SEC, were concentrated using a speed vac (CentriVap, Labconco). […] The UV absorbance spectrum was recorded from 200-600 nm in a spectrophotometer (DU-800, Beckman-Coulter) using 10 mm quartz cuvettes (Hellma Analytics-Germany) and employing equal concentrations of the P1, P2 and P3. […]

[5] = 5 μM aged α-synuclein, all concentrations of compound, 48 hours, MTT

Compound	effect on preformed α-synuclein fibrils (Th-T counts) [1]	Th-T counts as fraction of the Th-T counts of the control ([1]; after 4 hours of incubation, ratios 6:1, 4:1, 2:1)	improvement of viability of the cells ([2]; 1 μM aged α-synuclein, all used concentrations of compound, MTT)	cells surviving [2, 5]	increase in viability of the cells [2, 5]	interaction with monomeric α-synuclein (two-dimensional NMR) [3]	SEC samples in which compound was detected by UV absorbance (P1, P2 oligomers; P3 monomers) [4]	improvement of cell viability ([2]; highest concentration, molar ratio of 4:1, MTT)	cells survived ([2]; α-synuclein aged with compound at molar ratios of 4:1 and 2:1, MTT)
CC(C)=CCC[C@](C)(O[C@@H]1O[C@H](CO[C@@H]2O[C@H](CO)[C@@H](O)[C@H](O)[C@H]2O)[C@@H](O)[C@H](O)[C@H]1O)[C@H]1CC[C@]2(C)[C@@H]1[C@H](O)C[C@@H]1[C@@]3(C)CC[C@H](O[C@@H]4O[C@H](CO)[C@@H](O)[C@H](O)[C@H]4O[C@@H]4O[C@H](CO)[C@@H](O)[C@H](O)[C@H]4O)C(C)(C)[C@@H]3CC[C@]12C [Gn Rb1, ginsenoside Rb1]	disaggregated in a dose-dependent fashion	⅕	approximately 30%	approximately 80%	approximately 30%	does not interact significantly with monomeric α-synuclein	detected only in the oligomeric P2 samples		
O=C1c2c(O)cc(O)cc2O[C@H](c2cc(O)c(O)c(O)c2)[C@H]1O [dihydromyricetin]	disaggregated preformed α-synuclein fibrils in a dose-dependent fashion						detected in both P2 and P3	approximately 10%	
O=C(/C=C/c1ccc(O)c2c1[C@H](C(=O)O[C@H](Cc1ccc(O)c(O)c1)C(=O)O)[C@@H](c1ccc(O)c(O)c1)O2)O[C@H](Cc1ccc(O)c(O)c1)C(=O)O [salvianolic acid B]							detected in the P2 sample		approximately 95%

— patent US10488417B2, “Compounds for use as imaging agents” (United Arab Emirates University, priority 2014, dated 2019)
